Measurements taken from the OPERA property sets (Mansouri et al. 2018).

## Cn1ccc(=O)[nH]c1=O
  log10 vapour pressure (mmHg): -3.29
  melting point: 237 °C

## FC=C(F)F
  boiling point: -51 °C

## O=S(=O)(O)C(F)(F)C(F)(F)C(F)(F)C(F)(F)C(F)(F)F
  boiling point: 225 °C

## Cc1nccn1C
  boiling point: 206 °C

## Cc1cc(Cl)nn1C
  boiling point: 211 °C
  melting point: 47.5 °C

## C#CCCCCCCCCCCCCC
  boiling point: 268 °C
  melting point: 10 °C

## CCCCCCCCc1ccc(N)cc1
  boiling point: 310 °C
  melting point: 20 °C
  ready biodegradability: readily biodegradable

## CCCC/C=C/CO
  boiling point: 178 °C

## CCOc1ccccc1C(=O)O
  melting point: 20.7 °C

## CCCCCCCCNCCCCCCCC
  boiling point: 298 °C
  melting point: 35.5 °C
  ready biodegradability: readily biodegradable

## C/C=C/C/C=C/CCC(=O)[C@H]1O[C@H]1C(N)=O
  melting point: 93.5 °C

## CCOC(CO)OCC
  boiling point: 167 °C

## CC1=CCCCC1
  boiling point: 106 °C
  log10 vapour pressure (mmHg): 1.49

## CCC(=O)CC(=O)CC
  ready biodegradability: readily biodegradable

## Fc1ccc(Br)cc1Br
  melting point: 69 °C

## Cc1cn([C@H]2C[C@H](F)[C@@H](CO)O2)c(=O)[nH]c1=O
  melting point: 177 °C

## O=C=Nc1ccc(Cl)c(Cl)c1
  melting point: 43 °C

## ClCC=Cc1ccccc1
  melting point: -19 °C

## CN(C)C(=O)OC1N=C(c2ccccc2)c2cc(Cl)ccc2N(C)C1=O (stereo unspecified)
  melting point: 174 °C

## O=C(O)COc1cc(Cl)c(Cl)cc1Cl
  log10 Koc (L/kg): 1.99
  melting point: 153 °C

## S=C=Nc1ccc(Br)cc1
  melting point: 60.5 °C

## COC(=O)c1ccc(O)cc1
  log10 Koa: 8.57
  melting point: 131 °C

## CCCCCCCCOC(=O)CCC
  boiling point: 244 °C
  melting point: -55.6 °C

## CCOC(CN(C)C)OCC
  boiling point: 170 °C

## N#Cc1sc2c(=O)c3ccccc3c(=O)c=2sc1C#N
  log10 vapour pressure (mmHg): -10.7
  melting point: 225 °C
  ready biodegradability: not readily biodegradable

## O=C(O)/C=C/c1ccc(Cl)cc1Cl
  melting point: 234 °C

## CCCCCCCCCCCC(=O)[O][Na]
  ready biodegradability: readily biodegradable

## CC(C=NO)=NO
  melting point: 157 °C

## CC(C)(C)OCCO
  ready biodegradability: not readily biodegradable

## CCc1ccc2c(c1)CCCC2
  boiling point: 244 °C
  melting point: -70 °C

## COCC(=O)c1ccccc1
  boiling point: 245 °C
  melting point: 8 °C

## CNC(=O)O/N=C1\[C@@H](Cl)[C@@H]2C[C@H](C#N)[C@H]1C2
  melting point: 144 °C

## CCOC(=O)C(O)c1ccccc1 (stereo unspecified)
  melting point: 35 °C

## CCc1ccc(C)cc1C
  boiling point: 188 °C
  log10 biodegradation half-life (days): 0.602
  log10 vapour pressure (mmHg): -0.0685
  melting point: -62.9 °C

## CCS(=O)(=O)CCO
  melting point: 46 °C

## CCCc1ccc(C)cc1
  boiling point: 183 °C
  log10 vapour pressure (mmHg): 0.043
  melting point: -63.6 °C

## CCCOC(=O)NCCCN(C)C.Cl
  log10 vapour pressure (mmHg): -6.54
  melting point: 64.2 °C

## CC(C)c1ccc(C(C)C)c(C(C)C)c1
  boiling point: 244 °C

## Oc1ccc2cc(O)ccc2c1
  melting point: 220 °C

## CC(F)(F)CCl
  boiling point: 55 °C
  melting point: -56.2 °C

## CCOC(=O)Cc1ccccc1
  boiling point: 227 °C
  log10 Koc (L/kg): 1.89
  melting point: -29.4 °C

## CCCCCCCCSC#N
  melting point: 105 °C

## Cc1ccccc1N=C(N)Nc1ccccc1C
  ready biodegradability: not readily biodegradable

## CCC(C)Cl (stereo unspecified)
  boiling point: 68 °C
  log10 Henry constant (atm·m³/mol): -1.62
  log10 vapour pressure (mmHg): 2.19
  melting point: -140 °C

## CCCCNC(=S)NCCCC
  melting point: 64 °C

## FC(F)=C(F)C(F)(F)F
  boiling point: -29.6 °C
  log10 vapour pressure (mmHg): 3.69
  melting point: -156 °C

## CC(=O)c1ccc(C)s1
  boiling point: 232 °C
  melting point: 27.5 °C

## c1ccc2c(c1)Cc1ccccc1C2
  boiling point: 305 °C
  melting point: 111 °C

## C(CCOCC1CO1)COCC1CO1 (stereo unspecified)
  boiling point: 266 °C
  ready biodegradability: not readily biodegradable

## CO[C@H]1C=CC2=CCN3CCC4=C(CC(=O)OC4)[C@]23C1
  melting point: 99.5 °C

## CC(C)(C)C(=O)C=Cc1ccccc1
  melting point: 43 °C

## COCCOCCOCCOC
  boiling point: 216 °C
  log10 vapour pressure (mmHg): -1.39
  melting point: -45 °C

## CC(=O)OCC1=C[C@@H]2OC(=O)C3=COC(O[C@@H]4O[C@H](CO)[C@@H](O)[C@H](O)[C@H]4O)C1C32 (stereo partly specified)
  melting point: 132 °C

## O=C(O)c1cc(Cl)cc(Cl)c1O
  melting point: 220 °C

## Cl.NCCc1c[nH]c2ccccc12
  melting point: 255 °C

## N#CCc1ccccc1
  boiling point: 234 °C
  log10 vapour pressure (mmHg): -1.05
  melting point: -23.8 °C
  ready biodegradability: readily biodegradable

## c1ccc(-c2ccc(-c3ccccc3)o2)cc1
  boiling point: 344 °C
  melting point: 91 °C

## CCCCCCCCCC(C)O (stereo unspecified)
  log10 vapour pressure (mmHg): -1.48

## CCCNc1c([N+](=O)[O-])cc(C(F)(F)F)cc1[N+](=O)[O-]
  log10 Koc (L/kg): 3.61

## COC(OC)(OC)OC
  boiling point: 114 °C
  melting point: -5 °C

## O=C(O)c1ccccn1
  melting point: 136 °C
  ready biodegradability: readily biodegradable

## O=C(O)CCCCBr
  melting point: 39 °C

## Ic1cccs1
  boiling point: 181 °C
  log10 vapour pressure (mmHg): 0.906
  melting point: -40 °C

## O=C1OC(=Cc2ccccc2)c2ccccc21
  melting point: 100 °C
